Read-outs that look alike come from different tables or passages of the source.
How the values were obtained:
PmSiaT = target: T1, PmSiaT (Proteus mirabilis, UniProt B4EZY7); assay: nanoDSF thermal shift assay, PmSiaT; type: binding; details: for Average 1 / Average 2 / Average 3 / Replicate 1 / Replicate 2 / Replicate 3: PmSiaT Tm; for Average 1: average of experiment 1; for Average 2: average of experiment 2; for Average 3: average of experiment 3; for Replicate 1: experiment 1, second capillary; for Replicate 1 / Replicate 2 / Replicate 3 / Tm 1 / Tm2 / Tm 3 / Tm average overall / ΔTm at 1250 µM: 1.25 mM; for Replicate 2: experiment 2, second capillary; for Replicate 3: experiment 3, second capillary; for Tm 1: experiment 1, first capillary; for Tm2: experiment 2, first capillary; for Tm 3: experiment 3, first capillary; for Tm average overall / ΔTm at 1250 µM: three experiments; for ΔTm at 1250 µM: vs Neu5Ac, read-out: ΔTm average overall
T1 construct: made in house
T1 sequence (B4EZY7 1-496): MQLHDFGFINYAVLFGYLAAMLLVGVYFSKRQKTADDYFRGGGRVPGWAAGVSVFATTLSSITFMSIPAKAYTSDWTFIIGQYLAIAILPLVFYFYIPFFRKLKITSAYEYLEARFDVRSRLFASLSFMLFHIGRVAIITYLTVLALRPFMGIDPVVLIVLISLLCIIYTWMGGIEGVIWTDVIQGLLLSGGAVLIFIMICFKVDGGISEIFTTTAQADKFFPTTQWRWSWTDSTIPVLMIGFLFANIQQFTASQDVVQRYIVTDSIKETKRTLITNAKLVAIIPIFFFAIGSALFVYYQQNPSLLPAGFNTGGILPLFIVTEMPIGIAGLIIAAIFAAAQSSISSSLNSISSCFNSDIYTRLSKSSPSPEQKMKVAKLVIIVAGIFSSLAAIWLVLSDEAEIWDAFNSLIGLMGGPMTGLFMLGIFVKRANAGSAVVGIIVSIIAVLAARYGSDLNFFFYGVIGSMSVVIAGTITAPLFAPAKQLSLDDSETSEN
Protocol: (§1) Nano-differential scanning fluorimetry (nanoDSF) is a high-throughput method that relies on the thermal stabilization of the folded protein state by a bound ligand.[33]
(§2) The melting points of protein–inhibitor complexes were measured on a Prometheus NT.48 instrument from NanoTemper Technologies. Solutions containing the protein at 2 μM in phosphate buffered saline with 0.0174% (w/v) dodecylmaltoside (DDM) and the ligand at 1.25 mM were loaded onto standard capillaries by NanoTemper. The temperature was increased from 25 to 95 °C at a ramp rate of 1 °C/min. The fluorescence was recorded at 330 and 350 nm and as a ratio of the two wavelengths.
(§3) The intensity ratio and its first derivative were calculated using manufacturer’s software (PR.ThermControl, version 2.1.2).
(§4) The melting temperatures have been measured in 3 separate experiments. In each experiment, two capillaries were included per compound, having therefore 2 technical replicates per experiment. In the table all data is presented. Tm1 and Replicate 1 represent the two replicates of the first experiment. Average 1 is the average between Tm 1 and Replicate 1. ΔTm 1 is the thermal shift when compared to the Tm of Neu5Ac. This is calculated from Average 1. The ΔTm presented in the article are the ΔTm average overall, which represent the overall average of the averages from the three experiments. The standard deviation (SD) is calculated from the […]

SaSiaT = SaSiaT (Staphylococcus aureus, UniProt A0A0H2XJ46); assay: nanoDSF thermal shift assay, SaSiaT; type: binding; details: for Average 1 / Average 2 / Average 3 / Replicate 1 / Replicate 2 / Replicate 3: SaSiaT Tm; for Average 1: average of experiment 1; for Average 2: average of experiment 2; for Average 3: average of experiment 3; for Replicate 1: experiment 1, second capillary; for Replicate 1 / Replicate 2 / Replicate 3 / Tm 1 / Tm2 / Tm 3 / Overall average (Tm): 1.25 mM; for Replicate 2: experiment 2, second capillary; for Replicate 3: experiment 3, second capillary; for Tm 1: experiment 1, first capillary; for Tm2: experiment 2, first capillary; for Tm 3: experiment 3, first capillary; for Overall average (Tm): three experiments
Protocol: as §1, §2, §3, §4

[1] = PmSiaT, experiment 1, vs Neu5Ac, read-out: ΔTm 1
[2] = PmSiaT, experiment 2, vs Neu5Ac, read-out: ΔTm 2
[3] = PmSiaT, experiment 3, vs Neu5Ac, read-out: ΔTm 3

SMILES	Average 1 (PmSiaT)	Average 2 (PmSiaT)	Average 3 (PmSiaT)	Replicate 1 (PmSiaT)	Replicate 2 (PmSiaT)	Replicate 3 (PmSiaT)	Tm 1 (PmSiaT; PmSiaT)	Tm2 (PmSiaT; PmSiaT)	Tm 3 (PmSiaT; PmSiaT)	Tm average overall (PmSiaT; PmSiaT)	Average 1 (SaSiaT)	Average 2 (SaSiaT)	Average 3 (SaSiaT)	Replicate 1 (SaSiaT)	Replicate 2 (SaSiaT)	Replicate 3 (SaSiaT)	Tm 1 (SaSiaT; SaSiaT)	Tm2 (SaSiaT; SaSiaT)	Tm 3 (SaSiaT; SaSiaT)	Overall average (Tm) (SaSiaT; SaSiaT)	other results
O=C(CCl)NC1C(O)CC(O)(C(=O)O)OC1C(O)C(O)CO (stereo not shown) [Compound 6g]	49.8 °C	49.9 °C	49.5 °C	49.7 °C	49.9 °C	49.5 °C	49.9 °C	49.9 °C	49.5 °C	49.7 °C	49.0 °C	49.2 °C	49.3 °C	49.0 °C	49.0 °C	48.9 °C	49.0 °C	49.4 °C	49.7 °C	49.2 °C	ΔTm (PmSiaT; [1]): 0.8 °C; ΔTm (PmSiaT; [2]): 0.7 °C; ΔTm (PmSiaT; [3]): 0.2 °C; ΔTm at 1250 µM (PmSiaT; PmSiaT): 0.6 °C
[N-]=[N+]=NCC(=O)N[C@H]1[C@H]([C@H](O)[C@H](O)CO)O[C@@](O)(C(=O)O)C[C@@H]1O [Compound 6h, 5-azidoacetamido-3,5-dideoxy-D-glycero-α-galacto-non-2-ulopyranosonate, reference compound]	49.2 °C	49.0 °C	49.1 °C	49.2 °C	48.8 °C	49.3 °C	49.2 °C	49.2 °C	49.0 °C	49.1 °C	52.8 °C	52.9 °C	52.8 °C	52.7 °C	53.0 °C	52.7 °C	52.8 °C	52.7 °C	52.8 °C	52.8 °C	ΔTm (PmSiaT; [1]): -0.1 °C; ΔTm (PmSiaT; [2]): 0.1 °C; ΔTm (PmSiaT; [3]): 0 °C; ΔTm at 1250 µM (PmSiaT; PmSiaT): 0 °C
CCSCC(O)C(O)C1OC(O)(C(=O)O)CC(O)C1NC(C)=O (stereo not shown) [Compound 8b]	45.9 °C	45.9 °C	46.1 °C	45.9 °C	46.0 °C	46.1 °C	45.8 °C	45.9 °C	46.2 °C	46.0 °C	49.9 °C	48.6 °C	49.8 °C	49.9 °C	48.7 °C	49.6 °C	49.9 °C	48.5 °C	50.0 °C	49.4 °C	ΔTm (PmSiaT; [1]): -3.1 °C; ΔTm (PmSiaT; [2]): -3.3 °C; ΔTm (PmSiaT; [3]): -3.2 °C; ΔTm at 1250 µM (PmSiaT; PmSiaT): -3.2 °C
CC(=O)NC1C(O)CC(O)(C(=O)O)OC1C(O)C(C)O (stereo not shown) [Compound 8f]	46.0 °C	45.9 °C	45.9 °C	46.0 °C	45.9 °C	45.9 °C	46.0 °C	45.8 °C	45.9 °C	45.9 °C	43.1 °C	43.0 °C	42.9 °C	42.9 °C	43.1 °C	43.0 °C	43.2 °C	43.0 °C	42.8 °C	43.0 °C	binding / thermal stabilization in words (PmSiaT; PmSiaT, nanoDSF screen): complete loss of affinity; binding / thermal stabilization in words (SaSiaT; SaSiaT, nanoDSF screen): complete loss of affinity

Further lines, with some results ahead:

Average 1 (PmSiaT)	Average 2 (PmSiaT)	Average 3 (PmSiaT)	Replicate 1 (PmSiaT)	Replicate 2 (PmSiaT)	Replicate 3 (PmSiaT)	Tm 1 (PmSiaT; PmSiaT)	Tm2 (PmSiaT; PmSiaT)	Tm 3 (PmSiaT; PmSiaT)	Tm average overall (PmSiaT; PmSiaT)	Average 1 (SaSiaT)	Average 2 (SaSiaT)	Average 3 (SaSiaT)	Replicate 1 (SaSiaT)	Replicate 2 (SaSiaT)	Replicate 3 (SaSiaT)	Tm 1 (SaSiaT; SaSiaT)	Tm2 (SaSiaT; SaSiaT)	Tm 3 (SaSiaT; SaSiaT)	Overall average (Tm) (SaSiaT; SaSiaT)	SMILES	other results
45.9 °C	46.2 °C	46.1 °C	45.8 °C	46.0 °C	46.0 °C	46.1 °C	46.3 °C	46.2 °C	46.1 °C	51.0 °C	49.2 °C	50.8 °C	50.9 °C	49.2 °C	50.4 °C	51.0 °C	49.3 °C	51.3 °C	50.3 °C	CSCC(O)C(O)C1OC(O)(C(=O)O)CC(O)C1NC(C)=O (stereo not shown) [Compound 8a]	ΔTm (PmSiaT; [1]): -3.1 °C; ΔTm (PmSiaT; [2]): -3 °C; ΔTm (PmSiaT; [3]): -3.2 °C; ΔTm at 1250 µM (PmSiaT; PmSiaT): -3.1 °C
47.7 °C	47.9 °C	48.0 °C	47.8 °C	47.9 °C	48.1 °C	47.6 °C	47.9 °C	47.9 °C	47.9 °C	48.9 °C	49.6 °C	49.7 °C	48.9 °C	49.6 °C	49.6 °C	48.9 °C	49.5 °C	49.8 °C	49.4 °C	CC(=O)NC1C(O)CC(O)(C(=O)O)OC1C(O)C(O)CCl (stereo not shown) [Compound 8c]	ΔTm (PmSiaT; [1]): -1.3 °C; ΔTm (PmSiaT; [2]): -1.3 °C; ΔTm (PmSiaT; [3]): -1.3 °C; ΔTm at 1250 µM (PmSiaT; PmSiaT): -1.3 °C
47.3 °C	47.2 °C	47.2 °C	47.4 °C	47.1 °C	47.0 °C	47.2 °C	47.3 °C	47.4 °C	47.2 °C	49.9 °C	49.9 °C	51.8 °C	49.8 °C	49.9 °C	52.8 °C	49.9 °C	49.9 °C	50.8 °C	50.5 °C	CC(=O)NC1C(O)CC(O)(C(=O)O)OC1C(O)C(O)CBr (stereo not shown) [Compound 8d]	ΔTm (PmSiaT; [1]): -1.7 °C; ΔTm (PmSiaT; [2]): -2 °C; ΔTm (PmSiaT; [3]): -2.1 °C; ΔTm at 1250 µM (PmSiaT; PmSiaT): -1.9 °C
46.9 °C	47.2 °C	47.3 °C	46.7 °C	47.2 °C	47.2 °C	47.2 °C	47.3 °C	47.3 °C	47.1 °C	49.3 °C	49.0 °C	49.5 °C	49.3 °C	48.9 °C	49.1 °C	49.2 °C	49.0 °C	49.9 °C	49.3 °C	CC(=O)NC1C(O)CC(O)(C(=O)O)OC1C(O)C(O)CI (stereo not shown) [Compound 8e]	ΔTm (PmSiaT; [1]): -2.1 °C; ΔTm (PmSiaT; [2]): -2 °C; ΔTm (PmSiaT; [3]): -2 °C; ΔTm at 1250 µM (PmSiaT; PmSiaT): -2 °C
